Earlier results as cited in patent US6534285B1 (priority 1984, dated 2003).

Biological target: AIDS reverse transcriptase (Human immunodeficiency virus type 1 group M subtype B, UniProt P04585)
Conditions: reference 53

**Q.** With `Cc1ccc(C(=O)Nc2ccc(S(=O)(=O)O)c3cc(S(=O)(=O)O)cc(S(=O)(=O)O)c23)cc1NC(=O)c1cccc(NC(=O)Nc2cccc(C(=O)Nc3cc(C(=O)Nc4ccc(S(=O)(=O)O)c5cc(S(=O)(=O)O)cc(S(=O)(=O)O)c45)ccc3C)c2)c1` [Suramin] as the molecule, how does the “inhibition of AIDS reverse transcriptase” value read?
**A.** The value was “known inhibitor”.
